The compounds below were run on acetylcholine (ACh) (assay: In vivo microdialysis, acetylcholine (ACh) levels in striatum). Settings: 10 mg/kg PO, rat striatum ACh.
Design: species or system male Sprague-Dawley Rats
Method: Microdialysis Methodology
Surgery: For these studies, male Sprague-Dawley Rats (250-350 g) were anesthetized with sodium pentobarbital (54 mg/kg, ip) and placed on a Kopf sterotaxic apparatus. The skull was exposed and drilled through to the dura at a point 0.2 mm anterior and 3.0 mm lateral to the bregma. At these coordinates, a guide cannula was positioned at the outer edge of the dura through the drilled opening, lowered perpendicularly to a depth of 2.5 mm, and permanently secured with dental cement to bone screws. Following the surgery, rats were given ampicillin (40 mg/kg, ip) and individually housed in modified cages. A recovery period of approximately 3 to 7 days was allowed before the microdialysis procedure was undertaken.
Microdialysis: All of the equipment and instrumentation used to conduct in vivo microdialysis was obtained from Bioanalytical Systems, Inc. (BAS). The microdialysis procedure involved the insertion through the guide cannula of a thin, needle-like perfusable probe (CMA/12, 3 mm×0.5 mm) to a depth of 3 mm in striatum beyond the end of the guide. The probe was connected beforehand with tubing to a microinjection pump (CMA/100). Rats were collared, tethered, and, following probe insertion, were placed in a large, clear, plexiglass bowl with litter material and access to food and water. The probe was perfused at 2, μl/min with Ringer's buffer (NaCl 147 mM; KCl 3.0 mM; CaCl2 1.2 mM; MgCl2 1.0 mM) containing 5.5 mM glucose, 0.2 mM L-ascorbate, and 1 μM neostigmine bromide at pH 7.4). To achieve stable baseline readings, microdialysis was allowed to proceed for 90 minutes prior to the collection of fractions. Fractions (20 μl) were obtained at 10 minute intervals over a 3 hour period using a refrigerated collector (CMA/1 70 or 200). Four to five baseline fractions were collected, following which the drug or combination of drugs to be tested was administered to the animal. Upon completion of the collection, each rat was autopsied to determine accuracy of probe placement.
Acetylcholine (ACh) analysis: The concentration of ACh in collected samples of microdialysate was determined using HPLC/electrochemical detection. Samples were auto-injected (Waters 712 Refrigerated Sample Processor) onto a polymeric analytical HPLC column (BAS, MF-6150) and eluted with 50 mM Na2 HPO4, pH 8.5. To prevent bacterial growth, Kathon CG reagent (0.005%) (BAS) was included in the mobile phase. Eluent from the analytical column, containing separated ACh and choline, was then immediately passed through an immobilized enzyme reactor cartridge (BAS, MF-6151) coupled to the column outlet. […] Integration and quantification of peaks were accomplished using "Maxima" chromatography software (Waters Corporation). […]

Row | Compound | Microdialysis Maximum % of baseline [%]
1 | Nc1cc(F)ccc1C(=O)N1CCC(N2CCC(C3(c4ccc(S(=O)(=O)c5cccc(Cl)c5)cc4)OCCO3)CC2)CC1 [Example 3E] | 188
2 | COc1ccc(S(=O)(=O)c2ccc(C3(C4CCN(C5CCN(C(=O)c6cccc(F)c6N)CC5)CC4)OCCO3)cc2)cc1 [Example 2F] | 186
3 | Nc1ccccc1C(=O)N1CCC(N2CCC(Cc3ccc(S(=O)(=O)c4cccc(Cl)c4)cc3)CC2)CC1 [Example 7A] | 150
4 | COc1ccc(S(=O)(=O)c2ccc(C3(C4CCN(C5CCN(C(=O)c6cccc(C)c6N)CC5)CC4)OCCO3)cc2)cc1 [Example 2] | 194

Reference: patent publication US6294554A (priority 2000, dated 2001)
